These results are taken from ChEMBL document CHEMBL5465560, “Selectivity Literature for EUbOPEN Chemogenomic Library” (2024).

Molecules are shown by their SMILES.

In test [1] the target is T1, Mitogen-activated protein kinase 12 (Homo sapiens) (UniProt P53778).
T1 sequence (whole entry): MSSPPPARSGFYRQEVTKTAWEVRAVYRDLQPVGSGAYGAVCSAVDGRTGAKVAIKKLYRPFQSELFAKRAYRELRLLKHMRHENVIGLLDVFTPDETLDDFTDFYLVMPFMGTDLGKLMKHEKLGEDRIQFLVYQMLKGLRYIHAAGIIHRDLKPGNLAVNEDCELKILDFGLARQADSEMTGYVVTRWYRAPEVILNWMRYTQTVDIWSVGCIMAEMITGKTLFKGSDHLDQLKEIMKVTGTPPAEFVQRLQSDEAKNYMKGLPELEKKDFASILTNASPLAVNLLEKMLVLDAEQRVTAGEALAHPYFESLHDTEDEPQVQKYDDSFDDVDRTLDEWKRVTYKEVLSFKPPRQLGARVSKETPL
Nature of the test: Selectivity interaction (Kinase screening (Upstate/Millipore)) EUB0000604a MAPK12.

Test [2] addresses Cyclin-dependent kinase 5 (Homo sapiens, UniProt Q00535). Briefly: Selectivity interaction (KinomeScan (DiscoverX)) EUB0000607a CDK5. Conditions: at 10 µM.
In test [3] the target is Glycogen synthase kinase-3 alpha (Homo sapiens, UniProt P49840). Briefly: Selectivity interaction (Kinase panel (Invitrogen)) EUB0000639a GSK3A. Conditions: at 200 nM.
Glycogen synthase kinase-3 alpha, sequence (P49840 2-483 limits assumed): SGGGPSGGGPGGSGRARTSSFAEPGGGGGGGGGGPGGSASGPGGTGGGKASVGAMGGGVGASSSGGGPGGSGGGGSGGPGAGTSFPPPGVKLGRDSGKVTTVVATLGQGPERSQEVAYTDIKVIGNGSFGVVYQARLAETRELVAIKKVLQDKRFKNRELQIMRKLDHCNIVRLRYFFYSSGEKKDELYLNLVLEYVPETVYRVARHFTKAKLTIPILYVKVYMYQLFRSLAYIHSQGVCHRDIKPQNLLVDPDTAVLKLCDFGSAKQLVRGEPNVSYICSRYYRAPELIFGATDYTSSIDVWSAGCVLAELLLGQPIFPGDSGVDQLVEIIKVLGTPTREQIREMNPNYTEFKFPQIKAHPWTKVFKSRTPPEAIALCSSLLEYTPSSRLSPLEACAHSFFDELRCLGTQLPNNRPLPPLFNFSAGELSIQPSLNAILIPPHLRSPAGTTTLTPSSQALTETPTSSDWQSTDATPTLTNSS
Test [4] addresses T2, Inhibitor of nuclear factor kappa-B kinase subunit alpha (Homo sapiens) (UniProt O15111).
T2 sequence (whole entry): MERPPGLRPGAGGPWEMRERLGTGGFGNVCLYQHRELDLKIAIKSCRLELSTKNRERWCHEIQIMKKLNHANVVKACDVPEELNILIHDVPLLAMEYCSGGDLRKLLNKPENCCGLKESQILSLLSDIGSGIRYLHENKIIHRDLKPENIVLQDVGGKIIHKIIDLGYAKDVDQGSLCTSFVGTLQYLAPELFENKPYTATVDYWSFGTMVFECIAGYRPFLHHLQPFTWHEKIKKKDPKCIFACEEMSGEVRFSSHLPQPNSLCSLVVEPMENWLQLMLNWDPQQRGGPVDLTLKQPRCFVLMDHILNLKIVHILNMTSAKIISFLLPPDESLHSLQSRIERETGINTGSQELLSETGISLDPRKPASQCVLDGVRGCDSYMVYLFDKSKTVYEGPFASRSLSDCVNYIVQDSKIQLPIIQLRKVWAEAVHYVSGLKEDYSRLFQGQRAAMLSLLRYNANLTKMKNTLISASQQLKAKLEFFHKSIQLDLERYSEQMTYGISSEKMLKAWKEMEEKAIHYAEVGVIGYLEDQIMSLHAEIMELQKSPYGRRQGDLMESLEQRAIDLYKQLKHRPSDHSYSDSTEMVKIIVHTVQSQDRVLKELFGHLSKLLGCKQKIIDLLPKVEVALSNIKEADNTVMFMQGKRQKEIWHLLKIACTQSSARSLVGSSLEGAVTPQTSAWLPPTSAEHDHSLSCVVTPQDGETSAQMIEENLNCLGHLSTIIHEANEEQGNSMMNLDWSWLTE
Nature of the test: Selectivity interaction (Kinase panel (Invitrogen)) EUB0000639a CHUK. Particulars: at 200 nM.

Test [5] addresses T3, Serine/threonine-protein kinase ULK3 (Homo sapiens) (UniProt Q6PHR2).
T3 sequence (whole entry): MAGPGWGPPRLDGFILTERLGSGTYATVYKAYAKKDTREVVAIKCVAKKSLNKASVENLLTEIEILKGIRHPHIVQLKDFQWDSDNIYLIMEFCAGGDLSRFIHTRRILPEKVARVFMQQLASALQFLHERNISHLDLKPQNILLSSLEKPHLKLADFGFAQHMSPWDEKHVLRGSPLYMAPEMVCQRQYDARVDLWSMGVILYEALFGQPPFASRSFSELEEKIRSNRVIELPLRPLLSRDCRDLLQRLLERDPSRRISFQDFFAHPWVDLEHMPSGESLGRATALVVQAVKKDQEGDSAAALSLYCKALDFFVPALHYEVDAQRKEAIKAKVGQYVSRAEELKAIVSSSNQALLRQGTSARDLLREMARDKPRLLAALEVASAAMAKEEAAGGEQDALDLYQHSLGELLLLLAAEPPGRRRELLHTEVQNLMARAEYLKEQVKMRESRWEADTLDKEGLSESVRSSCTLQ
Nature of the test: Selectivity interaction (KinomeScan (DiscoverX)) EUB0000595a ULK3. Particulars: at 10 µM.

For test [6], the target named is T4, Serine/threonine-protein kinase 17A (Homo sapiens) (UniProt Q9UEE5).
T4 sequence (whole entry): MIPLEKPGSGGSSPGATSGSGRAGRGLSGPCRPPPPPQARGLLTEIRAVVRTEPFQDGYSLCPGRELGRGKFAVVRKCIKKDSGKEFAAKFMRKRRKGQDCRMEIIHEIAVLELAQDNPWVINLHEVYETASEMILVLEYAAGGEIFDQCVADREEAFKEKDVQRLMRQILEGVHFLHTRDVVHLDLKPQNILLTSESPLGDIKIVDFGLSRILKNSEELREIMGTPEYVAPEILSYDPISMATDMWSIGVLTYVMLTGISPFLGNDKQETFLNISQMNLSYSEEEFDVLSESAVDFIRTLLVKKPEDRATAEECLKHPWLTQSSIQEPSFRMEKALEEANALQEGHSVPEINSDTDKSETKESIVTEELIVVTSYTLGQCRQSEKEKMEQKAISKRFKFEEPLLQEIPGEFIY
Briefly: Selectivity interaction (KinomeScan (DiscoverX)) EUB0001619a STK17A. Particulars: at 1 µM.

Test [7] concerns the target Serine/threonine-protein kinase Nek7 (Homo sapiens) (UniProt Q8TDX7). Briefly: Selectivity interaction (Kinase panel (KiNativ target engagement assay in Jurkat cells)) EUB0001635a NEK7. Format: cell-based. Conditions: Selectivity number of off-targets 0.0, Selectivity number of targets 233.0, Source Knowledge https://www.sciencedirect.com/science/article/pii/S2451945619300674?via%3Dihub, at 1 µM.

Serine/threonine-protein kinase Nek7 (Homo sapiens), sequence (Q8TDX7 whole entry, looked up): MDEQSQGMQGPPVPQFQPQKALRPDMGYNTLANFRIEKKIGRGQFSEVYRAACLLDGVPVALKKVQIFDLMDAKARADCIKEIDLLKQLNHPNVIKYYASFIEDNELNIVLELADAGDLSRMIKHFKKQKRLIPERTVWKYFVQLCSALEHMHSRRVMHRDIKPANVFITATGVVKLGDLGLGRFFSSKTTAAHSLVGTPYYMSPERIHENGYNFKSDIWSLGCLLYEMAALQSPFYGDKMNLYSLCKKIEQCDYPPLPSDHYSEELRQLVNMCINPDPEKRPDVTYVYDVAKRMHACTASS
Cyclin-dependent kinase 5, sequence (Q00535 whole entry, looked up): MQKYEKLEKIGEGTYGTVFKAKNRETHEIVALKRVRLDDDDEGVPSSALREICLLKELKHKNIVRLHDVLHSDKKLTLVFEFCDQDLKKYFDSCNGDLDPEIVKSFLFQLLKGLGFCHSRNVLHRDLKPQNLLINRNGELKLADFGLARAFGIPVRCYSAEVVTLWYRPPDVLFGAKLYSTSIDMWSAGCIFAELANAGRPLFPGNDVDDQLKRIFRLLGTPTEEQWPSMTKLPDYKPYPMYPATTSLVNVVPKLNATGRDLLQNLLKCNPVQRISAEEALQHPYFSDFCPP

In the case of `Cc1cnc(Nc2ccc(F)cc2Cl)nc1-c1c[nH]c(C(=O)N[C@H](CO)c2cccc(Cl)c2)c1`, the % of inhibition in test [1] was found to be 56%.
As for `CNC(=O)Nc1ccc(-c2nc(N3CC4CCC(C3)O4)c3cnn(C4CCC5(CC4)OCCO5)c3n2)cc1`, the % of control in test [2] stood at 88%.
Take `CC[C@@H]1[C@H](F)C(=O)N[C@@H]1COc1nccc2cc(C(N)=O)c(OC)cc12` [ZIMLOVISERTIB]: the % of inhibition was 7.43% in test [3] and -5.38% in test [4].
With `COCC(=O)NC/C=C/c1ccc2ncnc(Nc3ccc(Oc4ccc(C)nc4)c(C)c3)c2c1` [CP-724714], the % of control in test [5] turned out to be 68%.
In test [6], `N#Cc1cccc(-c2c[nH]c3ncnc(N4CCOCC4)c23)c1` returned a % of control of 88%.
As to `C=CC(=O)Nc1ccc(C(=O)Nc2[nH]nc3c2CN(C(=O)N[C@H](CN(C)C)c2ccccc2)C3(C)C)cc1`, the % of engagement in test [7] was -12.5%.
